# Assay results as given in ChEMBL document CHEMBL1201862, “PubChem BioAssay data set” (2004).
# Calls of active or inactive are those of the source.
# How the values were obtained:
# HeLa = test: HeLa cell cytotoxicity, dose response, cytotoxicity control for MITF activator project, CellTiter-Glo luminescence, cherry-pick samples (AID 540259); format: functional, cell-based; details: Homo sapiens
# Escherichia coli = test: microbe, parasite or virus in culture
# [1] = target: T1, Heat shock factor protein 1 (Mus musculus, UniProt P38532); test: inhibition of MG132-induced HSE-luciferase signal, confirmation, cell-based, NIH3T3, luminescence, dose retest (AID 2382); format: functional;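 also: NIH3T3 fibroblasts with HSF1-driven luciferase reporter stressed by proteasome inhibitor MG132; luminescence from HSF1-driven luciferase expression after 8 hours of MG132 stress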
# T1 sequence (P38532 whole entry): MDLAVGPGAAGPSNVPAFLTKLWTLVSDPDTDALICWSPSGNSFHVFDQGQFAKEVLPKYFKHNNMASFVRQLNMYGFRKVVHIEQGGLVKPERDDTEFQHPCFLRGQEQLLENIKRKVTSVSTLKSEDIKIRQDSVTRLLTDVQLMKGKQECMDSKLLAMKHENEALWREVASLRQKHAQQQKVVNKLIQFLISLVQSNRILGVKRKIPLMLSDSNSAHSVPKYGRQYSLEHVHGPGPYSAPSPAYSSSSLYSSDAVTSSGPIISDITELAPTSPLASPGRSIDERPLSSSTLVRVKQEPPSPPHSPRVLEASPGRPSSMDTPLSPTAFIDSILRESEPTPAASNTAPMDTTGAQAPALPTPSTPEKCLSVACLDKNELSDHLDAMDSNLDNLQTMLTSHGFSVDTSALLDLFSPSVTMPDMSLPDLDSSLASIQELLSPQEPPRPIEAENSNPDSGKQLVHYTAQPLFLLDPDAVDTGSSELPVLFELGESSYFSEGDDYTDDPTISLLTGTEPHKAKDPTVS
# [2] = NIH-3T3 fibroblast cytotoxicity, dose response, cytotoxicity control, cell-based, fluorescence, Alamar Blue, secondary assay (AID 2327); format: functional;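 also: NIH-3T3 mouse fibroblasts cultured with fluconazole at 8 µg/mL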
# [3] = C. albicans growth with fluconazole, confirmation, fluorescence, retest (AID 2467); format: functional, cell-based
# Aminopeptidase N = target: T2, Aminopeptidase N (Plasmodium falciparum FcB1/Columbia, UniProt O96935); test: P. falciparum M1AAP inhibitors, biochemical, fluorogenic H-Leu-NHMec substrate, 1536-well (AID 1445); design: species or system Plasmodium falciparum 3D7, 3D7
# T2 sequence (O96935 whole entry): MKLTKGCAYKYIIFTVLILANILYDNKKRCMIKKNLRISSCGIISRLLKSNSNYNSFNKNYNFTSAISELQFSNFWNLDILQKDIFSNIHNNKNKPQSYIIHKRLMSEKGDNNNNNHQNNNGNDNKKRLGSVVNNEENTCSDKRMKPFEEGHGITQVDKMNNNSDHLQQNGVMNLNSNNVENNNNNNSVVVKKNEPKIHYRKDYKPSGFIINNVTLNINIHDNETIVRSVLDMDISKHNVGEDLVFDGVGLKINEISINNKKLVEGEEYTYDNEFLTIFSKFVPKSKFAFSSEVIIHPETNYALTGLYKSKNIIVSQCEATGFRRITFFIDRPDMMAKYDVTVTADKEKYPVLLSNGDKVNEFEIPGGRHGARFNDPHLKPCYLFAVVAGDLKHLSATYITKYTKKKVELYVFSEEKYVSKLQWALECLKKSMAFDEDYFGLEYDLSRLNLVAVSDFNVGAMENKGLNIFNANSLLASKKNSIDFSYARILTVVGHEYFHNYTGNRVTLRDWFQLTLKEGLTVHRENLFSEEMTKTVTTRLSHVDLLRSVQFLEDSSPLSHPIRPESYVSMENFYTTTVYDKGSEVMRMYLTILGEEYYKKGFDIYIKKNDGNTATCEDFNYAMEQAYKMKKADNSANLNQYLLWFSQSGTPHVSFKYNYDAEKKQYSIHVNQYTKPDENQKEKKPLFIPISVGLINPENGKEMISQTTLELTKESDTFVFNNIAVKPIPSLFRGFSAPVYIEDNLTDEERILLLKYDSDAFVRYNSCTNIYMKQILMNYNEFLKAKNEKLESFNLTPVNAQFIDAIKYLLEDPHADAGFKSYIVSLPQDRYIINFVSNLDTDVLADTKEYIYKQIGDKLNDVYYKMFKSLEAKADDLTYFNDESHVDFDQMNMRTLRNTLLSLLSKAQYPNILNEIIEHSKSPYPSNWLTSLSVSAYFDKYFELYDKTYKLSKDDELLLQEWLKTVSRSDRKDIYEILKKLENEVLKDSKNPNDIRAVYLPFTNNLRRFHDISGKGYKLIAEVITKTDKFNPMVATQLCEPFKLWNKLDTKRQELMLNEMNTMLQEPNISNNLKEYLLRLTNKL
# [4] = target: Intestinal-type alkaline phosphatase (Homo sapiens, UniProt P09923); test: inhibition of human intestinal alkaline phosphatase – biochemical, dose response (AID 488876); format: functional
# [5] = target: Intestinal-type alkaline phosphatase (Mus musculus, UniProt P24822); test: PubChem AID 488785; format: functional
# Sequence of Intestinal-type alkaline phosphatase (Mus musculus, UniProt P24822) (P24822 whole entry): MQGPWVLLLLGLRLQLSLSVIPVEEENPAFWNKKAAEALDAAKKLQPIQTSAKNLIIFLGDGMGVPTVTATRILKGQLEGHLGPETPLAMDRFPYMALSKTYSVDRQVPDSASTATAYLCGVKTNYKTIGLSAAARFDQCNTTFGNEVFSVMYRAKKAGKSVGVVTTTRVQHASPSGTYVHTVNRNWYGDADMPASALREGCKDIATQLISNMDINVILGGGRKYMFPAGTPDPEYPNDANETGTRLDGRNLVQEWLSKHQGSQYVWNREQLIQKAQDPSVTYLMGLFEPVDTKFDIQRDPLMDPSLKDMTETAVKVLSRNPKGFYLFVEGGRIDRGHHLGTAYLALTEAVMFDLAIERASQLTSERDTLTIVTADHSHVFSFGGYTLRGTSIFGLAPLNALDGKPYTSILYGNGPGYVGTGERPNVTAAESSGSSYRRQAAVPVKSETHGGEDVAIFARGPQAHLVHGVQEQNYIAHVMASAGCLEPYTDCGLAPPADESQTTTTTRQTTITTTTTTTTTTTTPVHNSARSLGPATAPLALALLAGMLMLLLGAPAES
# [6] = target: FAD-linked sulfhydryl oxidase ALR (Homo sapiens, UniProt P55789); test: inhibitors of human ALR sulfhydryl oxidase, dose response, biochemical, H2O2 detection, luminescence, cherry-pick (AID 493248)
# Sequence of FAD-linked sulfhydryl oxidase ALR (P55789 whole entry): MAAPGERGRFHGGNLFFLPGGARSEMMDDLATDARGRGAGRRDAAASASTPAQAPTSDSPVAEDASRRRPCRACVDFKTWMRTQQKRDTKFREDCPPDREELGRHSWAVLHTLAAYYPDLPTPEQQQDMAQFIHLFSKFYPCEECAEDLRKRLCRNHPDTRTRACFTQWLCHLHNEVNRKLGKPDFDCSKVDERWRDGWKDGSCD
# [7] = target: T3, Alkaline phosphatase, tissue-nonspecific isozyme (Homo sapiens, UniProt P05186); test: TNAP enzyme inhibition by screening hits, dose response, selectivity assay for mouse IAP inhibitor project, biochemical, human TNAP, uHTS hits (AID 488906); format: functional
# T3 sequence (P05186 whole entry): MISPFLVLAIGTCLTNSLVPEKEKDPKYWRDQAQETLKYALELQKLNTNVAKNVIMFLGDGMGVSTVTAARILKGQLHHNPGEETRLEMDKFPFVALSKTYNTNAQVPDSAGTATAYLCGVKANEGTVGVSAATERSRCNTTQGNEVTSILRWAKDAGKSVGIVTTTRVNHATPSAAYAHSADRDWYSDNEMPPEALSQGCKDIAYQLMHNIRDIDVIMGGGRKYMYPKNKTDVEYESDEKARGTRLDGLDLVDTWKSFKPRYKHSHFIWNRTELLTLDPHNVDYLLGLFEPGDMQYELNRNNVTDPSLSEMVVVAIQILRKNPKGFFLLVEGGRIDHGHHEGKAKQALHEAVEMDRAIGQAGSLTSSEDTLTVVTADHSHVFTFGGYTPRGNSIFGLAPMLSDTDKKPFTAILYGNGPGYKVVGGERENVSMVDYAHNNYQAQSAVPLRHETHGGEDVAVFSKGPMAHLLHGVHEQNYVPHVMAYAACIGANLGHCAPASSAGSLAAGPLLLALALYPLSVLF
# [8] = target: 72 kDa type IV collagenase (Homo sapiens, UniProt P08253); test: Dose Response validation of uHTS RPN11 inhibitor hits using a MMP-2 Fluorescence assay.; format: functional
# [9] = target: 26S proteasome non-ATPase regulatory subunit 14 (Homo sapiens, UniProt O00487); test: inhibition of proteasome subunit RPN11 – biochemical, fluorescence polarization, uHTS hits, confirmation (AID 602368); format: functional
# Prothrombin = Prothrombin (Bos taurus, UniProt P00735); test: thrombin inhibition, dose response, biochemical, fluorescence polarization, uHTS hits (AID 602369); format: functional
# [10] = target: Peroxisome proliferator-activated receptor gamma/Nuclear receptor coactivator 1 (Homo sapiens, UniProt P37231); test: TR-FRET dose response biochemical High Throughput Screening assay for agonists of the steroid receptor coactivator 1 (SRC-1) recruitment by the peroxisome proliferator-activated receptor gamma (PPAR gamma): non-selective agonists. [Related pubchem assays (depositor defined):AID1300, AID1808, AID504735, AID631]; format: protein assay
# Sequence of Peroxisome proliferator-activated receptor gamma/Nuclear receptor coactivator 1 (P37231 whole entry): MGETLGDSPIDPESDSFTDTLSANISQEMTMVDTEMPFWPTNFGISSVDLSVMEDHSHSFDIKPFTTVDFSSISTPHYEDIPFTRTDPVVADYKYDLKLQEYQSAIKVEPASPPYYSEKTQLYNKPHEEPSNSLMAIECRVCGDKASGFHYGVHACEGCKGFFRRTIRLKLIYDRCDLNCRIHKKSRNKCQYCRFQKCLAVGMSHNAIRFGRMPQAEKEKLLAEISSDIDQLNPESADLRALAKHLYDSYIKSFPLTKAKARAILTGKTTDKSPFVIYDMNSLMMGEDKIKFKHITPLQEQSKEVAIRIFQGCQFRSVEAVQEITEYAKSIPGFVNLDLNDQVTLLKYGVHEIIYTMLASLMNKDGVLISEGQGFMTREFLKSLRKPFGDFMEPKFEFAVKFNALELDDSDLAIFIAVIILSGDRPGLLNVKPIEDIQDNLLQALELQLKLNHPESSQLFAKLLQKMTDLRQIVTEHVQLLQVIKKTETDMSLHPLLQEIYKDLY
# Sequence of Peroxisome proliferator-activated receptor gamma/Nuclear receptor coactivator 1 (Q15788 whole entry, further chain): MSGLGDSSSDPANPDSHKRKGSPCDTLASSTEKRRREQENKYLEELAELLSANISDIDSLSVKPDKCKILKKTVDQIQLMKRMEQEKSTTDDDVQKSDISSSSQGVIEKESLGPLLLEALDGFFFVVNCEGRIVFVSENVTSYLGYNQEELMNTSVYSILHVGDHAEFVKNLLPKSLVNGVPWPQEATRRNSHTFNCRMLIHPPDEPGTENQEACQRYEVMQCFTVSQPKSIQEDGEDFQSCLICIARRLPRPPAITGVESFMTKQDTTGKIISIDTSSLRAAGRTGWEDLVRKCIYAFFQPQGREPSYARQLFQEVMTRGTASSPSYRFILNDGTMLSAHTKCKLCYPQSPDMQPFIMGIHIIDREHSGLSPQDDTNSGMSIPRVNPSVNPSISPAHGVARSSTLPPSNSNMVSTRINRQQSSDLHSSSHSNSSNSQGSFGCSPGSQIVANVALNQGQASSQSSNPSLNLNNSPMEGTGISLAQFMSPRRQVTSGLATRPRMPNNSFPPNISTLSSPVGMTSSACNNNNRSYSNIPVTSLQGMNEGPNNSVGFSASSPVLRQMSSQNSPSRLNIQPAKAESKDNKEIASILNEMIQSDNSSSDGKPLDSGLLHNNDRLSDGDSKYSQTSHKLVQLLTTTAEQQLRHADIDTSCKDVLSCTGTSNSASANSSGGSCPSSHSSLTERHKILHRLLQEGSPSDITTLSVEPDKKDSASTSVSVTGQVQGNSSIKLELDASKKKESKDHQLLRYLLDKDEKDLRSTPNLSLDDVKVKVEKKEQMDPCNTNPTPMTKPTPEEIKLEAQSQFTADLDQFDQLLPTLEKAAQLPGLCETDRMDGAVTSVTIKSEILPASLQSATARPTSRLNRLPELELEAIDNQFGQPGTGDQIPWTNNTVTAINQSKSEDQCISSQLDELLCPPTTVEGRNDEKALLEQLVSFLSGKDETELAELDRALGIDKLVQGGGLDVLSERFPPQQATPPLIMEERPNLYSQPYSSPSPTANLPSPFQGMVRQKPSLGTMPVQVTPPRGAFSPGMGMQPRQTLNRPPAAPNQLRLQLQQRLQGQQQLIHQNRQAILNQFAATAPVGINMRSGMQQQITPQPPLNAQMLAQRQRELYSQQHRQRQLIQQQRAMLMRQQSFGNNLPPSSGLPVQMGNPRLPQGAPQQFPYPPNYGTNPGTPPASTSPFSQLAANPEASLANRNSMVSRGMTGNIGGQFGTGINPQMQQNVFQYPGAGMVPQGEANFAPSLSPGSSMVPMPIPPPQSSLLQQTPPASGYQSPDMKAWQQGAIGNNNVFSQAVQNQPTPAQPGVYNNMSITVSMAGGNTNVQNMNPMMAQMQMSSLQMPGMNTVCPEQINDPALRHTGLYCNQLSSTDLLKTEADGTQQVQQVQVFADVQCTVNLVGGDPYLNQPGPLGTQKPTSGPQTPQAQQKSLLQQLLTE
# [11] = target: Peroxisome proliferator-activated receptor gamma/Nuclear receptor coactivator 2 (Homo sapiens, UniProt P37231); test: (§1) TR-FRET dose response biochemical High Throughput Screening assay for agonists of the steroid receptor coactivator 2 (SRC-2) recruitment by the peroxisome proliferator-activated receptor gamma (PPAR gamma): non-selective agonists. [Related pubchem assays: 1297, 1032 ]; format: functional
# Sequence of Peroxisome proliferator-activated receptor gamma/Nuclear receptor coactivator 2 (P37231 whole entry): as the sequence (P37231 whole entry) above
# Sequence of Peroxisome proliferator-activated receptor gamma/Nuclear receptor coactivator 2 (Q15596 whole entry, further chain): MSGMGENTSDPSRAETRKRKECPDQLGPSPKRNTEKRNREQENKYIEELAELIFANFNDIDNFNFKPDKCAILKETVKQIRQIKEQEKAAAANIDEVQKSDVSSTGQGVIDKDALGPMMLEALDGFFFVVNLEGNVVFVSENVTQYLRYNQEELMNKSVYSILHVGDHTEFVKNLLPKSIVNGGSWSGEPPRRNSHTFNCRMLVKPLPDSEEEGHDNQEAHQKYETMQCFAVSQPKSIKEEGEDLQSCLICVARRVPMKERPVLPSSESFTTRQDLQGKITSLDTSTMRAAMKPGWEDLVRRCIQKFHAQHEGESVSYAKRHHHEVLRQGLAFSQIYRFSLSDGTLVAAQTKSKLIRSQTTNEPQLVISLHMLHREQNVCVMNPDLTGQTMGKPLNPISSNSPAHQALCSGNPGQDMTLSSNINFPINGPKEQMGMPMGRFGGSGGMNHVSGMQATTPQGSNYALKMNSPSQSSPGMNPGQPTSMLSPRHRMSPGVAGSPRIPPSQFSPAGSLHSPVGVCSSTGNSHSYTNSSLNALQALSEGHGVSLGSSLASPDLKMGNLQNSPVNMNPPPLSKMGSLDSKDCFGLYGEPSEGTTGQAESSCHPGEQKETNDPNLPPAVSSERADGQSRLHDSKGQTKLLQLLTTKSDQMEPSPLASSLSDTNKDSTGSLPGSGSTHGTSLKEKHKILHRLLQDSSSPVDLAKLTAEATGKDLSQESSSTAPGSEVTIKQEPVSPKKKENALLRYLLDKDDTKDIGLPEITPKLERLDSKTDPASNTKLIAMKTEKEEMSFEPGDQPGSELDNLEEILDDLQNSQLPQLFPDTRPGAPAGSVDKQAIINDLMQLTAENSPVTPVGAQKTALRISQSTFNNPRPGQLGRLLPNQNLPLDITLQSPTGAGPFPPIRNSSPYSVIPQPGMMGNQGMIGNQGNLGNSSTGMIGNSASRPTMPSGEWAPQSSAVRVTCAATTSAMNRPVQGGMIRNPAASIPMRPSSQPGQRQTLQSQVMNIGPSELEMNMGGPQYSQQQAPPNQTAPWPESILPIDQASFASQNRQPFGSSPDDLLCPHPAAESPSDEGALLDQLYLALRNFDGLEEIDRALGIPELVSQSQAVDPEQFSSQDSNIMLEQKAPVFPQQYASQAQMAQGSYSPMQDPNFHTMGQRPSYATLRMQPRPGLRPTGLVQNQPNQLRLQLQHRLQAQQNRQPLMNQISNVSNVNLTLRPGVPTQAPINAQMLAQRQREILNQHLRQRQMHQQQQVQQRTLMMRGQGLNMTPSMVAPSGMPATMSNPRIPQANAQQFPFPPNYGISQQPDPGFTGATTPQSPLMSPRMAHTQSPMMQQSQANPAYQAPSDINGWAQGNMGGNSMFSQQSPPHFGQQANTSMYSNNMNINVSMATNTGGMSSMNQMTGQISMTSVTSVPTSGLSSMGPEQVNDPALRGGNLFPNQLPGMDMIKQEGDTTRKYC
# [12] = target: Peroxisome proliferator-activated receptor gamma/Nuclear receptor coactivator 3 (Homo sapiens, UniProt P37231); test: as §1, with “3 (SRC-3)” for “2 (SRC-2)”, “1301 (Confirmation screen.), 1048 (Primary screen.)]” for “1297, 1032 ]”; format: functional
# [13] = HEp-2 cell cytotoxicity, dose response, cytotoxicity control for RSV inhibitor project, HTS (AID 2410); format: functional; details: human respiratory syncytial virus
# [14] = inhibitors of intracellular T. cruzi replication, confirmation, NIH3T3 host cells, beta-gal luminescence (AID 2044); format: functional, cell-based;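 also: intracellular parasites grown in NIH/3T3 mouse fibroblasts as host cells; luminescent beta-galactosidase reporter signal from transgenic T. cruzi replicating inside host cells; inhibitors lower the luminescence signal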
# [15] = cytotoxicity toward NIH3T3 fibroblasts, dose response, counter-screen, cell-based, ATP luminescence, mouse fibroblasts (AID 2010); format: functional;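 also: cells exposed to compound for about 90 hours before reading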
# [16] = cytotoxicity in MIN6 insulinoma cells, dose response, cytotoxicity control, cell-based, mouse insulinoma (AID 2122); format: functional;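 also: confirmatory high-throughput counterscreen run to flag cytotoxic compounds; mouse MIN-6 beta cells carrying an insulin promoter eGFP reporter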
# [17] = insulin promoter down-regulators in MIN6 cells, imaging, high-content screening, mouse beta cells (AID 1628); format: functional
# [18] = Luminescence Cell-Based Dose Confirmation HTS to Identify Activators of 5'UTR Stem-Loop Driven Alpha-Synuclein mRNA Translation in H4 Neuroglioblastoma Cells. [Related pubchem assays: 1829 (Project Summary), 1814 (Primary HTS)]; format: functional
# [19] = target: G-protein coupled receptor 55 (Homo sapiens, UniProt Q9Y2T6); test: GPR55 agonists via beta-arrestin recruitment, primary screen, imaging, U2OS cells, beta-arrestin-GFP redistribution (AID 1961); format: functional
# Sequence of G-protein coupled receptor 55 (Q9Y2T6 whole entry): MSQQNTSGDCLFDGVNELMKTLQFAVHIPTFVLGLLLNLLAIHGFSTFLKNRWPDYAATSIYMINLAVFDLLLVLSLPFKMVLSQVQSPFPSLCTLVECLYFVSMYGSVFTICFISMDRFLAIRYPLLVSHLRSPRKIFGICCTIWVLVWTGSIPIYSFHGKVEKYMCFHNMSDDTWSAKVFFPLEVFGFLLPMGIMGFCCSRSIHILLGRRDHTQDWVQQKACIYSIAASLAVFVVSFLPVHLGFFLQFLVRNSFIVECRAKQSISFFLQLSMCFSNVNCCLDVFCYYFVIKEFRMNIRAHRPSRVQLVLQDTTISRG
# H4 = test: Luminescence Cell-Based Dose Response HTS to Identify Activators of 5'UTR Stem-Loop Driven Prion Protein mRNA Translation in H4 Neuroglioblastoma Cells. [Related pubchem assays: 1829 (Project Summary), 1814 (Primary HTS)]; format: functional; details: Homo sapiens
# [20] = Luminescence Cell-Based Dose Response HTS to Identify Activators of Luciferase Translation or Activity in H4 […] Cells. [Related pubchem assays: 1829 (Project Summary), 1814 (Primary HTS)]; format: functional
compound,measurement,setting,value
N=C(NOC(=O)c1ccc2c(c1)OCO2)c1ccc(Cl)cc1,AC50,HeLa,69 µM (active)
O=C(c1ccc(Cl)cc1)C1CCCN(Cc2ccc3c(c2)OCCO3)C1 (centres undefined),AC50,Escherichia coli,190 µM (active)
same,EC50,[1],> 195 µM (not active)
Cc1ccc(N2NC(C)(c3cccs3)N=C2S)cc1 (centres undefined),EC50,[2],7.74 µM (active)
same,EC50,[3],1.27 µM (active)
same,AC50,HeLa,> 350 µM (inactive)
Cc1ccc(S(=O)(=O)Nc2ccc(O)c(Sc3nc[nH]n3)c2)cc1,IC50,Aminopeptidase N,83.8 µM (active)
same,IC50,[4],> 100 µM (inactive)
same,IC50,[5],13.8 µM (active)
same,AC50,[6],3.31 µM (active)
same,IC50,[7],> 100 µM (inactive)
O=c1[nH]c(CSc2ncnc3sccc23)nc2cc(C(F)(F)F)ccc12,IC50,[8],> 100 µM (inactive)
same,IC50,[9],32 µM (active)
same,IC50,Prothrombin,60.8 µM (active)
O=c1cc(CSc2nc3nncc-3c(O)n2-c2ccc(Br)cc2)nc2ccc(Br)cn12,EC50,[10],15.8 µM (inactive)
same,EC50,[11],11.6 µM (not active)
same,EC50,[12],48.1 µM (not active)
same,CC50,[13],22.8 µM (active)
CCN(CC)c1nc(-c2ccccn2)nc(-c2ccccc2)c1C#N,EC50,[2],> 160 µM (inconclusive)
same,EC50,[14],1.57 µM (active)
same,EC50,[3],> 38 µM (not active)
same,EC50,[15],6.71 µM (active)
same,IC50,[16],3.09 µM (active)
same,IC50,[17],2.71 µM (active)
CC(C)C[C@@H](CSc1ccccc1)N1CCN(CC(C)C)CCC1=O,EC50,[18],5.27 µM (active)
same,EC50,[19],14.1 µM (inactive)
same,EC50,H4,> 120 µM (not active)
same,AC50,HeLa,147 µM (active)
same,EC50,[20],41.4 µM (active)
